Target: T1, FPRL-1 (Homo sapiens, UniProt P25090)
T1 construct: expressed in transfected cells; host or cells: CHO-Gα16 cells stably expressing FPRL1
T1 sequence (P25090 1-351): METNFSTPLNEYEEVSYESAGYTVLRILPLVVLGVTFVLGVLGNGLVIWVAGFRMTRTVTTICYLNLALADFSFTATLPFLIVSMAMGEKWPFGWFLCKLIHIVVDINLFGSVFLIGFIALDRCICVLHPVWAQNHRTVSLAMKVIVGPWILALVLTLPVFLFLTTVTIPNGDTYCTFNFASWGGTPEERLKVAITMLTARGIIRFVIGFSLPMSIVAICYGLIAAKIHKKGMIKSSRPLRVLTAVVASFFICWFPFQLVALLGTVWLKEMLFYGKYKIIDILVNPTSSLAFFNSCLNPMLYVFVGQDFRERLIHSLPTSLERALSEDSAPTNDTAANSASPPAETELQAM
Assay: FPRL-1 Ga16-CHO compound-induced calcium activity (FLIPR Tetra)
Format: cell-based
Conditions: CHO-Gα16 cells stably expressing FPRL1; calcium activity on FLIPR Tetra; tested at 0.61 to 10,000 nM; read-out: FPRL-1 Ga16-CHO EC50
Protocol: HEK-Gα16 and CHO-Gα16 cells stably expressing FPRL1 were cultured in (F12, 10% FBS, 1% PSA, 400 μg/ml geneticin and 50 μg/ml hygromycin) and HEK-Gqi5 cells stable expressing FPR1 were cultured in (DMEM high glucose, 10% FBS, 1% PSA, 400 μg/ml geneticin and 50 μg/ml hygromycin). In general, the day before the experiment, 18,000 cells/well were plated in a 384-well clear bottom poly-d-lysine coated plate. The following day the screening compound-induced calcium activity was assayed on the FLIPR^Tetra. The drug plates were prepared in 384-well microplates using the EP3 and the MultiPROBE robotic liquid handling systems. Compounds were tested at concentrations ranging from 0.61 to 10,000 nM. Results are expressed as EC50 (nM) and efficacy values.

Compound	EC50 [nM]
CC1(CCc2cccc(O)c2)NC(=O)N(NC(=O)Nc2ccc(Br)cc2F)C1=O (centres unmarked) [Compound 53, 1-(4-Bromo-2-fluorophenyl)-3-(4-(3-hydroxyphenethyl)-4-methyl-2,5-dioxoimidazolidin-1-yl)urea]	2.9
CC(C)C1(CC(=O)NCCC(=O)O)NC(=O)N(NC(=O)Nc2ccc(Br)cc2)C1=O (centres unmarked) [Compound 93, 3-(2-(1-(3-(4-Bromophenyl)ureido)-4-isopropyl-2,5-dioxoimidazolidin-4-yl)acetamido)propanoic acid]	5.16
CCC1(CC)NC(=O)N(NC(=O)Nc2ccc(OC)cc2)C1=O [Compound 3, 1-(4-Methoxyphenyl)-3-(4,4-diethyl-2,5-dioxoimidazolidin-1-yl)urea]	194
Cc1ccc(CCC2(C)NC(=O)N(NC(=O)Nc3ccc(Br)cc3)C2=O)o1 (centres unmarked) [Compound 46, 1-(4-Bromophenyl)-3-(4-methyl-4-(2-(5-methylfuran-2-yl)ethyl)2,5-dioxoimidazolidin-1-yl)urea]	3.5
CC1(CCc2ccccc2F)NC(=O)N(NC(=O)Nc2ccc(Br)cc2)C1=O (centres unmarked) [Compound 37, 1-(4-Bromophenyl)-3-(4-(2-fluorophenethyl)-4-methyl-2,5-dioxoimidazolidin-1-yl)urea]	14
CC1(CCc2cccc(F)c2)NC(=O)N(NC(=O)Nc2ccc(Br)cc2)C1=O (centres unmarked) [Compound 41, 1-(4-Bromophenyl)-3-(4-(3-fluorophenethyl)-4-methyl-2,5-dioxoimidazolidin-1-yl)urea]	11.1
CC1(CCc2ccc(F)cc2)NC(=O)N(NC(=O)Nc2ccc(Br)cc2F)C1=O (centres unmarked) [Compound 40, 1-(4-Bromo-2-fluorophenyl)-3-(4-(4-fluorophenethyl)-4-methyl-2,5-dioxoimidazolidin-1-yl)urea]	118
CC1(CCc2cccs2)NC(=O)N(NC(=O)Nc2ccc(Br)cc2F)C1=O (centres unmarked) [Compound 44]	86
CC(C)C1(CC(=O)NCC(=O)O)NC(=O)N(NC(=O)Nc2ccc(Br)cc2)C1=O (centres unmarked) [Compound 92, 2-(2-(1-(3-(4-Bromophenyl)ureido)-4-isopropyl-2,5-dioxoimidazolidin-4-yl)acetamido)acetic acid]	133
CC1(CCc2ccccc2O)NC(=O)N(NC(=O)Nc2ccc(Br)cc2)C1=O (centres unmarked) [Compound 50, 1-(4-Bromophenyl)-3-(4-(2-hydroxyphenethyl)-4-methyl-2,5-dioxoimidazolidin-1-yl)urea]	0.97
CC1(COc2ccccc2)NC(=O)N(NC(=O)Nc2ccc(Br)cc2F)C1=O (centres unmarked) [Compound 28, 1-(4-Bromo-2-fluorophenyl)-3-(4-methyl-2,5-dioxo-4-(phenoxymethyl)imidazolidin-1-yl)urea]	52.1
CC1(CCc2ccc(F)cc2)NC(=O)N(NC(=O)Nc2ccc(Br)cc2)C1=O (centres unmarked) [Compound 39, 1-(4-Bromophenyl)-3-(4-(4-fluorophenethyl)-4-methyl-2,5-dioxoimidazolidin-1-yl)urea]	17
CCC1(CCc2ccccc2)NC(=O)N(NC(=O)Nc2ccc(Br)cc2)C1=O (centres unmarked) [Compound 30, 1-(4-Bromophenyl)-3-(4-ethyl-2,5-dioxo-4-(phenethyl)imidazolidin-1-yl)urea]	0.5
COC(=O)c1ccc(CCC2(C)NC(=O)N(NC(=O)Nc3ccc(Br)cc3)C2=O)cc1 (centres unmarked) [Compound 58, Methyl 4-(2-(1-(3-(4-Bromophenyl)ureido)-4-methyl-2,5-dioxoimidazolidin-4-yl)ethyl)benzoate]	204
CCc1ccc2[nH]c(C3(C)NC(=O)N(NC(=O)Nc4ccc(Br)cc4F)C3=O)cc2c1 (centres unmarked) [Compound 65, 1-(4-Bromo-2-fluorophenyl)-3-[4-(5-ethyl-1H-indol-2-yl)-4-methyl-2,5-dioxoimidazolidin-1-yl]urea]	169
CC(C)C1(CC(=O)O)NC(=O)N(NC(=O)Nc2ccc(Br)cc2)C1=O (centres unmarked) [Compound 81, 2-(1-(3-(4-Bromophenyl)ureido)-4-isopropyl-2,5-dioxoimidazolidin-4-yl)acetic acid]	459

Compound	EC50 [nM]
CC1(CCc2ccco2)NC(=O)N(NC(=O)Nc2ccc(Br)cc2F)C1=O (centres unmarked) [Compound 36]	39.8
O=C(Nc1ccc(Br)cc1)NN1C(=O)NC2(CCCCC2)C1=O [Compound 14, 1-(4-Bromophenyl)-3-(2,4-dioxo-1,3-diazaspiro[4.5]decan-3-yl)urea]	13.6
COc1ccc(COCCC2(C(C)C)NC(=O)N(NC(=O)Nc3ccc(Br)cc3)C2=O)cc1 (centres unmarked) [Compound 49, 1-(4-Bromophenyl)-3-(4-isopropyl-4-(2-((4-methoxybenzyl)oxy)ethyl)-2,5-dioxoimidazolidin-1-yl)urea]	232
CCC1(CC)NC(=O)N(NC(=O)Nc2ccc(Br)cc2F)C1=O [Compound 6, 1-(4-Bromo-2-fluorophenyl)-3-(4,4-diethyl-2,5-dioxoimidazolidin-1-yl)urea]	15.6
CCc1ccc2[nH]c(C3(C)NC(=O)N(c4ccc(Br)cc4)C3=O)cc2c1 (centres unmarked) [3-(4-Bromophenyl)-5-(5-ethyl-1H-indol-2-yl)-5-methylimidazolidine-2,4-dione]	2590
CC(C)CC1(CCc2ccccc2)NC(=O)N(NC(=O)Nc2ccc(Br)cc2F)C1=O (centres unmarked) [Compound 32]	105
CC(C)CC1(CCc2ccccc2)NC(=O)N(NC(=O)Nc2ccc(Br)cc2)C1=O (centres unmarked) [Compound 31]	86.4
CC1(CCc2cccs2)NC(=O)N(NC(=O)Nc2ccc(Br)cc2)C1=O (centres unmarked) [Compound 43]	7.9
CC1(CCc2ccc(C(=O)O)cc2)NC(=O)N(NC(=O)Nc2ccc(Br)cc2)C1=O (centres unmarked) [Compound 77, 4-(2-(1-(3-(4-Bromophenyl)ureido)-4-methyl-2,5-dioxoimidazolidin-4-yl)ethyl)benzoic acid]	210
CC(C)C1(CC(=O)O)NC(=O)N(NC(=O)Nc2ccc(Br)cc2F)C1=O (centres unmarked) [Compound 82, 2-(1-(3-(4-Bromo-2-fluorophenyl)ureido)-4-isopropyl-2,5-dioxoimidazolidin-4-yl)acetic acid]	713
CCC1(C(C)C)NC(=O)N(NC(=O)Nc2ccc(Br)cc2F)C1=O (centres unmarked) [Compound 20, 1-(4-Bromo-2-fluorophenyl)-3-(4-ethyl-4-isopropyl-2,5-dioxoimidazolidin-1-yl)urea]	6.3
CC1(CCc2ccc(O)c(F)c2)NC(=O)N(NC(=O)Nc2ccc(Br)cc2)C1=O (centres unmarked) [Compound 47, 1-(4-Bromophenyl)-3-(4-(3-fluoro-4-hydroxyphenethyl)-4-methyl-2,5-dioxoimidazolidin-1-yl)urea]	7.9
CC(C)C1(CC(=O)NCCC(=O)OC(C)(C)C)NC(=O)N(NC(=O)Nc2ccc(Br)cc2)C1=O (centres unmarked) [Compound 91, tert-Butyl 3-(2-(1-(3-(4-bromophenyl)ureido)-4-isopropyl-2,5-dioxoimidazolidin-4-yl)acetamido)propanoate]	79.1
CC(C)C1(CO)NC(=O)N(NC(=O)Nc2ccc(Br)cc2)C1=O (centres unmarked) [Compound 74, 1-(4-Bromophenyl)-3-(4-(hydroxymethyl)-4-isopropyl-2,5-dioxoimidazolidin-1-yl)urea]	2.65
O=C(Nc1ccc(Br)cc1)NN1C(=O)NC2(CCc3ccccc3C2)C1=O (centres unmarked) [Compound 27, 1-(4-Bromophenyl)-3-(2,5-dioxo-3′,4′-dihydro-1H,1′H-spiro[imidazolidine-4,2′-naphthalen]-1-yl)urea]	53.5

Same assay, conditions: FPRL-1 Ga16-CHO EC50, CHO-Gα16 cells stably expressing FPRL1; calcium activity on FLIPR Tetra; tested at 0.61 to 10,000 nM

Compound	EC50 [nM]
CCC1(CCc2ccccc2C(=O)OC)NC(=O)N(NC(=O)Nc2ccc(Br)cc2)C1=O (centres unmarked) [Compound 60, Methyl 2-(2-(1-(3-(4-bromophenyl)ureido)-4-ethyl-2,5-dioxoimidazolidin-4-yl)ethyl)benzoate]	10.3

Source: patent US20130123215A1, “2,5-DIOXOIMIDAZOLIDIN-1-YL-3-PHENYLUREA DERIVATIVES AS FORMYL PEPTIDE RECEPTOR LIKE-1 (FPRL-1) RECEPTOR MODULATORS” (ALLERGAN, INC., priority 2011, published 2013)
